# Results as given in patent publication US9663789B2, “PME-1 as a biomarker to predict and diagnose endometrial and breast cancer and gene silencing of PME-1 to inhibit epithelial to mesenchymal transition” (MEDICAL DIAGNOSTIC LABORATORIES, LLC, priority 2013, dated 2017).
# Entries after “also recorded” stand apart in the source; their conditions may differ.
# Experiments:
# Assay type in all cases: cell-based, human
# WNT3A = assay: qRT-PCR of WNT3A expression in RL95-2 cells; details: RL95-2, qRT-PCR normalized to 18S
# Procedure: (§1) Using RL95-2 endometrial cancer cells, we overexpressed PME-1 (FIG. 21A) or depleted PME-1 with shRNA targeted to PME-1 (SEQ ID NO: 2) (FIG. 21B) and confirmed that PME-1 was appropriately expressed.
# (§2) Total RNA was extracted with Qiagen RNAEasy kit from RL95-2 cells. cDNA was synthesized using 500 ng-1 μg of RNA and SuperScript VILO c-DNA mix (Life Technologies). Taqman probes and PCR-mix were purchased from Life Technologies. All samples were run in triplicates. Results are representative of three independent experiments in which genes of interest were normalized to the house-keeping gene, 18S or GAPDH, where fold-change was calculated using the ddCt method.
# ECC-1 cells = assay: Foci formation assay, ECC-1 cells; details: ECC-1 stable clones, with empty FLAG, PP2A, PP4 or PP6 over-expression, 10 days, vs shSCR
# Procedure: FIG. 24 depicts results from a study in which stable clones of ECC-1 cells expressing non-targeting scrambled shRNA (shSCR, black bars) or shPPME-1 (white bars) (SEQ ID NO: 2) and were then transfected with FLAG empty vector, FLAG-PPP2CA, FLAG-PPP4C, or FLAG-PPP6C. Cells (3,000) were plated and were allowed to grow for 10 days. Colonies were then stained with crystal violet and counted. The control cells expressing shSCR and transfected with empty FLAG vector were normalized to 100% foci formation. […] Averages of 6 experiments are plotted and statistical significance was calculated with the Student's T test, where *p<0.05, **p<0.01, ***p<0.001.
# We performed a foci formation analysis by transfecting: (i) empty FLAG vector, (ii) FLAG-PPP2CA, (iii) FLAG-PPP4C, or (iv) FLAG-PPP6C into ECC-1 cells that stably expressed either (i) shSCR (non-targeting shRNA, black bars) or (ii) shPPME1 (depletes PME-1 levels, white bars) (FIG. 24).
# 1,000 cells were plated in a six well tissue culture dish in selection media (to include 5 μg/ml puromycin) (InvivoGen). Cells were allowed to adhere and grow in a 5% CO2, 37° C. incubator for 10 to 14 days. Media was replaced every fourth day. Cells were stained with 1% crystal violet (Sigma Aldrich) for five minutes and rinsed with PBS. Colonies were counted and data is presented as the percentage of change compared to the control. […]
# ERK = assay: Western analysis of phospho-ERK in RL95-2 cells; details: RL95-2, compared to control cells
# Procedure: (§3) 15 μg of protein was used for western analysis. PME-1 antibody (Santa Cruz) and COXIV (Cell Signaling Technologies) were used for detection of proteins and the blots were developed using chemiluminescence (Pierce ECL Western Blotting Substrate—Thermo Scientific) on the GE ImageQuant LAS 4000. For analysis of Akt, ERK, and β-catenin signaling in tissue culture, western analyses were completed as follows. RL95-2 cells stably infected with lentivirus expressing constructs were selected with puromycin (Invivogen). The cells were incubated with either 50 μM Akt inhibitor (LY 294002, Cell Signaling Technologies) or 40 μM ERK inhibitor (V0126, Cell Signaling Technologies) for 1-2 hours at 37° C. 1.5× Laemelli buffer (0.5 M Tris pH6.8, […], 10% sodium dodecyl sulfate, 100 mM EDTA) was used to prepare cell lysates. 20 μg of protein was used for western analysis. Primary antibodies used were: P-Akt (Ser473), P-Akt (Thr308), pan-Akt, P-ERK (Thr202/204), total ERK (Cell Signaling Technologies), PME-1 (Santa Cruz), phospho-β-catenin (Ser45, Cell Signaling Technologies), phospho-β-catenin (Ser33/37/Thr41, Cell Signaling Technologies), β-catenin (Abcam), DcR2 (Abcam), and GAPDH (Abcam). All experiments were repeated several times with similar results.
# PME-1 = assay: Western blot of PME-1 protein in RL95-2 cells; details: GAPDH loading control
# Procedure: We prepared RL95-2 cell lines expressing empty vector (control), over-expressing PME-1 (+PME-1), or expressing shRNA against PPME1, the gene that codes for PME-1 protein (−PME-1). Using these cells, we confirmed the appropriate level of PME-1 via real-time RT-PCR (data not shown) and Western blot analysis (FIG. 8). GAPDH was used as a loading control.
# We also prepared two different shRNAs targeted against PME-1.
# as §3, with “Primary antibodies used were: P-Akt (Ser473), P-Akt (Thr308), pan-Akt, P-ERK (Thr202/204), total ERK (Cell Signaling Technologies), PME-1 (Santa Cruz), phospho-β-catenin (Ser45, Cell Signaling Technologies), phospho-β-catenin (Ser33/37/Thr41, Cell Signaling Technologies), β-catenin (Abcam), DcR2 (Abcam), and GAPDH (Abcam). All experiments were repeated several times with similar results.” left out
# RL95-2 cells [1] = assay: BrDU incorporation assay, RL95-2 cells; details: RL95-2, compared to scrambled shRNA control set to 100%
# Procedure: To confirm our foci formation data that altering PME-1 levels in endometrial cancer cells affect their rate of cell proliferation, we conducted a BrDU incorporation assay. BrDU is incorporated into newly synthesized DNA and can be detected with antibodies; thus, increased BrDU incorporation correlates with an increased level of proliferation.
# The BrDU Incorporation assay was completed with RL95-2 cell lines in media supplemented with 2.5 μg/ml puromycin. Cells were plated at 0.5×10^4 cells per well into a 96 well dish with 0% FBS and allowed to settle for 24 hours. The assay was completed as per kit instructions (Roche, Cell Proliferation ELISA, BrdU colorimetric cat. #11647229001). Briefly, 10 uM BrdU was added to the cells, 24 hours later cells were fixed and denatured with FixDenat from the kit and allowed to incubate with anti-BrdU antibody for up to two hours. Following the incubation and addition of the kit substrate, absorbances were read using FluoStar Galaxy.
# WNT3 = assay: qRT-PCR of WNT3 expression in RL95-2 cells; details: RL95-2, qRT-PCR normalized to 18S
# Procedure: as §1, §2
# SFRP1 = assay: qRT-PCR of SFRP1 expression in RL95-2 cells; details: RL95-2, qRT-PCR normalized to 18S
# Procedure: as §1, §2
# RL95-2 cells [2] = assay: Colony forming / invasive growth assay in Matrigel
# Procedure: To determine if PME-1 contributes to the more invasive and metastatic phenotypes, we performed a colony forming assay in matrigel.
# The 3D On Top Matrigel Assay was completed in 24 well dishes. Briefly, the bottoms of 24 well dishes were coated with 50 μl BD Matrigel Basement Matrix Phenol Red Free (BD Biosciences cat. #356237) and allowed to solidify at 37° C. 10^5 cells were suspended in 250 μl chilled medium containing either 10 ng/ml of TGF-b or vehicle and allowed to settle at 37° C. for 30 minutes. Chilled medium containing 10% of Matrigel was added by pipetting gently down the sidewall of the well and incubated at 37° C. for ten days changing top medium every second day. Colony counts were performed on the tenth day; averages were taken from three fields of view using a 10× objective. Experiment was repeated three times.
# PPME1 mRNA = assay: qRT-PCR of PME-1 (PPME1) expression in RL95-2 cells; details: RL95-2 cells stably expressing shRNA, vs shSCR
# Procedure: as §1, §2
substance,measurement,setting,value
"shRNA (SEQ ID NO: 2): lentiviral shRNA against PPME1, target sequence SEQ ID NO: 2 GCAGCGATTATTAGTAGAGTT, bp 289-309; hairpin SEQ ID NO: 8 (CCGGGCAGCGATTATTAGTAGAGTTCTCGAGAACTCTACTAATAATCGCTGCTTTTT; listed as Homo sapiens)",WNT3A expression,WNT3A,significantly decreased
same,foci formation,ECC-1 cells; listed as shPPME1 (SEQ ID NO: 2),significant decrease in foci formation
same,foci formation,ECC-1 cells; listed as shPPME-1 (SEQ ID NO: 2),significant decrease in foci formed
same,phospho-ERK (Western),ERK,decrease in phospho-ERK
same,PME-1 levels by Western blot analysis,PME-1,significantly decreased PME-1 levels
same,decrease in BrDU incorporation,RL95-2 cells [1],40%
same,WNT3 expression,WNT3,significantly decreased
same,SFRP1 expression,SFRP1,significantly increased; also recorded: significant increase in SFRP1 expression
same,colony number and size in Matrigel,"RL95-2 cells [2]; RL95-2, −TGF-β, compared to control cells",fewer and smaller colonies
same,decrease in colony formation,"RL95-2 cells [2]; RL95-2 in Matrigel, 10 days, vs control cells",50%
same,"PME-1 knocked down (qRT-PCR, normalized to 18S)",PPME1 mRNA,> 50%
